Experimental findings from ChEMBL document CHEMBL1138016, “Azaadamantane benzamide 5-HT4 agonists: gastrointestinal prokinetic SC-54750” (Bioorg Med Chem Lett, 2004) are described below.

In assay [1] the target is T1, Adrenergic receptor alpha-2 (Homo sapiens, UniProt P08913+P18825+P18089).
T1 sequence (P08913 whole entry): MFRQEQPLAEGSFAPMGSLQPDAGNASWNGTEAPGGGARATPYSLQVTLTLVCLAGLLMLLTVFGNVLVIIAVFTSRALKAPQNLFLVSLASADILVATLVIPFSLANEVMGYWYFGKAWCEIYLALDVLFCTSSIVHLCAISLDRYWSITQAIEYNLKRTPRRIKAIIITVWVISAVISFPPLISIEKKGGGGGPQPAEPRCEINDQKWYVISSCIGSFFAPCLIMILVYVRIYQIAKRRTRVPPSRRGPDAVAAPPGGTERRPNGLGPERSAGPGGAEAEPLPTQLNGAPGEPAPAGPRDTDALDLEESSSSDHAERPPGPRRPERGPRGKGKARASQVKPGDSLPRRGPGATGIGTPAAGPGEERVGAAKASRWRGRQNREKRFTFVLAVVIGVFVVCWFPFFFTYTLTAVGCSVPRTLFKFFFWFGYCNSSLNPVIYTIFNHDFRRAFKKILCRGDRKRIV
T1 sequence (P18825 whole entry): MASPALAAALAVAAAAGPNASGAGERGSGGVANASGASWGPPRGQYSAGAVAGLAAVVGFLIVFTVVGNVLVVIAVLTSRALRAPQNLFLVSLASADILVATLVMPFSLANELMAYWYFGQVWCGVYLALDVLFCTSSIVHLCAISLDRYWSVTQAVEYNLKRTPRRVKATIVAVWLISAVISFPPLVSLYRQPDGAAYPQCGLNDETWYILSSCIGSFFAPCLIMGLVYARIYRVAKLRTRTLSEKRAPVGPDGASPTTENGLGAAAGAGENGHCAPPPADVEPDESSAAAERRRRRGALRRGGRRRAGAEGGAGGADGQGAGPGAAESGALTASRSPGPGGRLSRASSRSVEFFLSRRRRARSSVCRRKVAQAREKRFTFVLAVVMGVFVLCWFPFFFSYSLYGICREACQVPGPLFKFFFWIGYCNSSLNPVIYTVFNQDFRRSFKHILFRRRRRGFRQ
T1 sequence (P18089 whole entry): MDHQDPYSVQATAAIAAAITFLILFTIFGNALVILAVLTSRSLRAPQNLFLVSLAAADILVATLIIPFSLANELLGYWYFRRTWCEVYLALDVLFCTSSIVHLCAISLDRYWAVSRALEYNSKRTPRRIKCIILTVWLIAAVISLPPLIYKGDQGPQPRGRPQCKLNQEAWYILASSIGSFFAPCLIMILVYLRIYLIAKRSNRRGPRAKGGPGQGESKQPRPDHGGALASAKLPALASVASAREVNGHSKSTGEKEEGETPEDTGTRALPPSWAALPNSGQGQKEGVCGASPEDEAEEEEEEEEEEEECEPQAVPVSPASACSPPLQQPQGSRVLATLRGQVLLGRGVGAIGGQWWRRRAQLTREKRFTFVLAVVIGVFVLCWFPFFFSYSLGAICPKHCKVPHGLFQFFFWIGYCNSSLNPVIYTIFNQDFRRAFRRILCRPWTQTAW
In words: Concentration required for inhibition of alpha-2 adrenergic receptor. The assay is classed as protein assay.

Another assay has as its target Adrenergic receptor beta (Homo sapiens, UniProt P08588+P07550+P13945). In words: Concentration required for inhibition of beta adrenergic receptor. The assay is classed as protein assay.
Assay [2] is described as follows: Concentration required for inhibition of 5-hydroxytryptamine 1 receptor using [3H]-5-HT as the radioligand.
Assay [3] in a line: Concentration required for inhibition of Dopamine receptor D2 using [3H]spiperone as the radioligand.
Assay [4] addresses T2, Adrenergic receptor alpha-1 (Homo sapiens, UniProt P35348+P25100+P35368).
T2 sequence (P35348 whole entry): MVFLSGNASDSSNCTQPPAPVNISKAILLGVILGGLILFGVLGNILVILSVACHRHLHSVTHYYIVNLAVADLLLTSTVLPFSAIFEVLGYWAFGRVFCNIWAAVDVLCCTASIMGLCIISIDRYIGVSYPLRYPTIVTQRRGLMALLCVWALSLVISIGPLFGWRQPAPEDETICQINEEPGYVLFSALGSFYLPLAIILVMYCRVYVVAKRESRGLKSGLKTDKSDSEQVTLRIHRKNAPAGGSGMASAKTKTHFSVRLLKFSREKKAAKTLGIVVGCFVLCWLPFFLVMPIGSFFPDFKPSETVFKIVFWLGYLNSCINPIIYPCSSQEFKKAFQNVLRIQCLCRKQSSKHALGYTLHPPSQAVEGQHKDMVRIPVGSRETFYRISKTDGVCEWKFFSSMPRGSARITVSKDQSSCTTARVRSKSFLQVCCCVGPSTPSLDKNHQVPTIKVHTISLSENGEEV
T2 sequence (P25100 whole entry): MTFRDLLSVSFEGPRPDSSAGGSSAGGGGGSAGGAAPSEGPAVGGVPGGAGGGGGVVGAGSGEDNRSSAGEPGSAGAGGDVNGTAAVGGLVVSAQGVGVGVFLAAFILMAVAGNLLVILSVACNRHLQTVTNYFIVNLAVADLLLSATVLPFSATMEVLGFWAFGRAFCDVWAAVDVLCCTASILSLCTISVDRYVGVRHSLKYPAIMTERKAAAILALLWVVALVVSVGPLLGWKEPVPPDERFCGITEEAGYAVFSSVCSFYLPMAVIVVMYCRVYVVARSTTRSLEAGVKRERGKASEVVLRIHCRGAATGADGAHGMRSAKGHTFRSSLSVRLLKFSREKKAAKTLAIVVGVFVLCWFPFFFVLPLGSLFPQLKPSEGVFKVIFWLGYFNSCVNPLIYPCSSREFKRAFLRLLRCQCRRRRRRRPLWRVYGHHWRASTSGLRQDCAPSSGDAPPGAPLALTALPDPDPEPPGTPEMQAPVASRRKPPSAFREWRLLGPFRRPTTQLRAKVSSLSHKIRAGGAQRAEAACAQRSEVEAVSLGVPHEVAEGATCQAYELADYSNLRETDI
T2 sequence (P35368 whole entry): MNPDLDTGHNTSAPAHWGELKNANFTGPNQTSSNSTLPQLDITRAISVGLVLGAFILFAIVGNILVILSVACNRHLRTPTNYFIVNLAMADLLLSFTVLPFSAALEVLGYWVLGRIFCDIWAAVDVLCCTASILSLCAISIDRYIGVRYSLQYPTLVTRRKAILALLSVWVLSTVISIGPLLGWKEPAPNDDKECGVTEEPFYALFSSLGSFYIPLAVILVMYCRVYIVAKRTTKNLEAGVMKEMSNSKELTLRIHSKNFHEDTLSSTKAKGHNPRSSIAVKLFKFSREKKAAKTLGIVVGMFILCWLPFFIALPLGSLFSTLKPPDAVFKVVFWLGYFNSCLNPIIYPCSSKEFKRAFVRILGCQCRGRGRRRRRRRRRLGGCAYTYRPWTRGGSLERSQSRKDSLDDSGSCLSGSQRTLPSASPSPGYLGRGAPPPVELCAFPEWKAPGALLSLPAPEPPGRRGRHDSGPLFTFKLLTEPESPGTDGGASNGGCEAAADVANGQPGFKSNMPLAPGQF
In words: Concentration required for inhibition of alpha-1 adrenergic receptor using [3H]prazosin as the radioligand. It is filed as protein assay.

Assay [5] can be described thus: Concentration required for inhibition of Dopamine receptor D1 using [3H]SCH-23,390 as the radioligand.
In assay [6] the target is Serotonin 2 (5-HT2) receptor (Homo sapiens, UniProt P41595+P28223+P28335). It is filed as protein assay.
A short description of assay [7]: Concentration required for inhibition of 5-hydroxytryptamine 3 receptor using [3H]GR-65630 as the radioligand.
A short description of assay [8]: Effective dose required towards 5-hydroxytryptamine 4 receptor as agonism in rat tunica muscularis mucosae (TMM).
The target in assay [9] is T3, Serotonin 3 receptor (5HT3) (Mus musculus) (UniProt Q9JHJ5+P23979). In words: Percent inhibition of 5-hydroxytryptamine 3 receptor after intraperitoneal administration at dose of 3 mpk was determined in mice by Von Bezold-Jarisch reflex assay.
Assay [10] concerns the target T3, Serotonin 3 receptor (5HT3) (Mus musculus). In words: Percent inhibition of 5-hydroxytryptamine 3 receptor after intraperitoneal administration at dose of 10 mpk was determined in mice by Von Bezold-Jarisch reflex assay.
Assay [11] shares this target. In words: Percent inhibition of 5-hydroxytryptamine 3 receptor after intraperitoneal administration at dose of 0.1 mpk was determined in mice by Von Bezold-Jarisch reflex assay.
For assay [12] the target is unchanged. In words: Percent inhibition of 5-hydroxytryptamine 3 receptor after intraperitoneal administration at dose of 0.3 mpk was determined in mice by Von Bezold-Jarisch reflex assay.
For assay [13] the target is unchanged. In words: Percent inhibition of 5-hydroxytryptamine 3 receptor after intraperitoneal administration at dose of 0.03 mpk was determined in mice by Von Bezold-Jarisch reflex assay.
Assay [14] shares this target. In words: Percent inhibition of 5-hydroxytryptamine 3 receptor after intraperitoneal administration at dose of 1 mpk was determined in mice by Von Bezold-Jarisch reflex assay.
For assay [15] the target is unchanged. In words: Percent inhibition of 5-hydroxytryptamine 3 receptor after intraperitoneal administration at dose of 8 mpk was determined in mice by Von Bezold-Jarisch reflex assay.
The target in assay [16] is T4, Serotonin 3 (5-HT3) receptor (Rattus norvegicus, UniProt P35563+Q9JJ16).
T4 sequence (P35563 whole entry): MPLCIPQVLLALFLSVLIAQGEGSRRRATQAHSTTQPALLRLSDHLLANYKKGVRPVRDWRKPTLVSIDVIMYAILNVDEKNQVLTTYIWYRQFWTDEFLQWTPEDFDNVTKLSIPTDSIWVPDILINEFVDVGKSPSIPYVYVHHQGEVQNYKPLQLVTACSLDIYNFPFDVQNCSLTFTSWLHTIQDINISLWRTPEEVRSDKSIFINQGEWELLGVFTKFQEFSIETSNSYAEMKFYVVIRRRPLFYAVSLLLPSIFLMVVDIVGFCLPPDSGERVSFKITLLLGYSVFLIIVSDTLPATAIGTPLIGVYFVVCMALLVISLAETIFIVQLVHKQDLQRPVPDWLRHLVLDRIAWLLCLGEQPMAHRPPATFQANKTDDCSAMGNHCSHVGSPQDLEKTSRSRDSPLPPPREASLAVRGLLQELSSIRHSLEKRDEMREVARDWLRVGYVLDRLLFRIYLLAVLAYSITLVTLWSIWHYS
T4 sequence (Q9JJ16 whole entry): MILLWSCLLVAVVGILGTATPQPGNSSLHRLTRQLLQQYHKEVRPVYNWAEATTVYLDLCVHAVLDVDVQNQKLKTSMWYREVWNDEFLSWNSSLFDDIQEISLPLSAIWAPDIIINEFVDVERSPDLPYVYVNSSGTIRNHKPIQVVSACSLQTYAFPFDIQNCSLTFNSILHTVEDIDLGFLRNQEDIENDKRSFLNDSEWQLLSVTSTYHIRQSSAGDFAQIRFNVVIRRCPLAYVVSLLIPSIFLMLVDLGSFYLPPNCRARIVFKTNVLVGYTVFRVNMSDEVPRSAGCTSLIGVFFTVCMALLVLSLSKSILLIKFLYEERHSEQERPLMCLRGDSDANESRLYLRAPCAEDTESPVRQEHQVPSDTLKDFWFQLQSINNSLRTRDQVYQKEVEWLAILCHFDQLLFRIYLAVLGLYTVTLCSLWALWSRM
In words: Binding affinity towards 5-hydroxytryptamine 3 receptor using [3H]GR-65630 as the radioligand in male rat cortical tissue. The assay is classed as protein-complex assay.

T3 sequence (P23979 whole entry, looked up): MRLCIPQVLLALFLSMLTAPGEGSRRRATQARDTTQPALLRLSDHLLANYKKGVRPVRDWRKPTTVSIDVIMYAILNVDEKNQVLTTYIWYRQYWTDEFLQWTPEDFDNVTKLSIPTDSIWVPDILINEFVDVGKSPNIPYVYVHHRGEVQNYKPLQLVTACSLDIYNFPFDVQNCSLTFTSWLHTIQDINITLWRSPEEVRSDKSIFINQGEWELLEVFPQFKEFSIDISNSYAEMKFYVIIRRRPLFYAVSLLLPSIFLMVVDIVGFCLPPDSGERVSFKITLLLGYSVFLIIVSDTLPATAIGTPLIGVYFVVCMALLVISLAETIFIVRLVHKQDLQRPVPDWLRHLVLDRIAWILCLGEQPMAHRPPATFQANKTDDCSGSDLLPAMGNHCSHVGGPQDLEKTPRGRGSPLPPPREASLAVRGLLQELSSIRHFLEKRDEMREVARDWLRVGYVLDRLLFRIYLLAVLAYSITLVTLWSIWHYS
T3 sequence (Q9JHJ5 whole entry, looked up): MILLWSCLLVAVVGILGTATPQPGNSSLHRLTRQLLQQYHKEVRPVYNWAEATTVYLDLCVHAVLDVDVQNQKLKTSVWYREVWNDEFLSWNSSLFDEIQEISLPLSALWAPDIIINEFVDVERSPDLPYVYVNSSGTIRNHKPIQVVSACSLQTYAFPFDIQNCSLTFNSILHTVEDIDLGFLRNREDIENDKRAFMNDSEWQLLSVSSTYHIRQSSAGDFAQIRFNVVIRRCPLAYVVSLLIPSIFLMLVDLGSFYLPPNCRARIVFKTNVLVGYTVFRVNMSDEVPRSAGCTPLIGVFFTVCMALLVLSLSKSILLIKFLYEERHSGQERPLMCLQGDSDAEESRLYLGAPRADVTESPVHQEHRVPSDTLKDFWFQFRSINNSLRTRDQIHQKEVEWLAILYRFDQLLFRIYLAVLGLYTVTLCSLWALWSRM

For the compound `COc1cc(N)c(Cl)cc1C(=O)N[C@@H]1C2CC3CN(C2)CC31` (stereo not given in full), the IC50 (in [1]; against Adrenergic receptor beta; in [2]; in assay [3]; in assay [4]; in assay [5]) was greater than 10000 nM in each case. Also, the IC50 (as a rule, the concentration that gives 50% inhibition) in [6] is greater than 10000 nM; in assay [7], 2.3 nM. Also, in assay [8], the ED50 was 51.3 nM.

As to `COc1cc(N)c(Cl)cc1C(=O)NC1C2CC3CC1CN(C3)C2` (stereo in doubt; 9a), the results for the inhibition in assay [9] and in assay [10] were 0% and 85%, respectively. The compound further displayed an ED50 in assay [8] of 538 nM.

Turning to `COc1cc(N)c(Cl)cc1C(=O)NC1C2CC3CC1CN(C3)C2` (stereo in doubt; 9b), the inhibition (commonly how much of the control response was suppressed) in assay [11] was 64%; in [12], 70%; in assay [13], 61%; in [14], 75%; in assay [9] it was 81%; in assay [10] it was 86%. In [8], this compound gave an ED50 of 262 nM.

Consider `COc1cc(N)c(Cl)cc1C(=O)NCC1C2CC3CC1CN(C3)C2` (stereo in doubt; 9c), for which the inhibition in [11] amounted to 60%; in assay [12] it was 75%; in assay [13], 0%; in [14] it was 82%; in assay [15] it was 82%; in assay [10] it was 88%.

As for `COc1cc(N)c(Cl)cc1C(=O)NCC1C2CC3CC1CN(C3)C2` (stereo in doubt; 9d) [listing 1 of 2 here], the Ki (commonly the equilibrium dissociation constant of an inhibitor or competing ligand from its target) in [16] turned out to be 144 nM. In [7], this compound returned an IC50 of 11 nM.

Turning to `COc1cc(N)c(Cl)cc1C(=O)NCC1C2CC3CC1CN(C3)C2` (stereo in doubt; 9d) [listing 2 of 2 here], the inhibition in assay [14] is 0%; in assay [9], 82%; in assay [10] it was 85%.

On to `COc1cc(N)c(Cl)cc1C(=O)NC1CCN(CCCOc2ccc(F)cc2)CC1OC` (stereo not given) [CISAPRIDE], for which the IC50 against Adrenergic receptor beta is greater than 10000 nM; in [2] it was greater than 10000 nM; in [4], 30 nM; in assay [5] it was 1700 nM. For the same compound, the ED50 in assay [8] came out at 54.7 nM.
